Results taken from ChEMBL document CHEMBL4610073, “Potential Antidiabetic Fumiquinazoline Alkaloids from the Marine-Derived Fungus Scedosporium apiospermum F41-1” (J Nat Prod, 2020).
Calls of active or inactive are those of the source. The calls are words filed in the database; no cut-off is given here.

Experiments:
[1] = tested on: 3T3-L1; experiment: Antidiabetic activity in mouse 3T3L1 preadipocytes assessed as increase in triglycerides level at 1 to 5 uM after 6 days by ORO staining based microscopic method; format: functional, cell-based
[2] = tested on: 3T3-L1; experiment: Antidiabetic activity in mouse 3T3L1 preadipocytes assessed as increase in triglycerides level at 5 uM after 6 days; format: functional, cell-based
[3] = tested on: 3T3-L1; experiment: Antidiabetic activity in mouse 3T3L1 preadipocytes assessed as increase in triglycerides level after 6 days; format: functional, cell-based; details: 3T3-L1, 144 h
[4] = tested on: 3T3-L1; experiment: Cytotoxicity against mouse 3T3L1 preadipocytes assessed as reduction in cell viability at 50 uM; format: cell-based; details: 3t3-l1, 50 µM
[5] = tested on: 3T3-L1; experiment: Antidiabetic activity in mouse 3T3L1 preadipocytes assessed as increase in triglycerides level at 5 uM up to 3 days by ORO staining based microscopic method; format: functional, cell-based
[6] = tested on: 3T3-L1; experiment: Antidiabetic activity in mouse 3T3L1 preadipocytes assessed as increase in triglycerides level at 5 uM after 3 to 6 days by ORO staining based microscopic method; format: functional, cell-based
[7] = biological target: T1, Peroxisome proliferator-activated receptor gamma (Mus musculus) (UniProt P37238); experiment: Agonist activity at PPARgamma in mouse 3T3L1 preadipocytes assessed as increase in AMPKalpha mRNA expression at 5 uM after 6 days by RT-PCR analysis; format: cell-based; details: 3T3-L1
T1 sequence (whole entry): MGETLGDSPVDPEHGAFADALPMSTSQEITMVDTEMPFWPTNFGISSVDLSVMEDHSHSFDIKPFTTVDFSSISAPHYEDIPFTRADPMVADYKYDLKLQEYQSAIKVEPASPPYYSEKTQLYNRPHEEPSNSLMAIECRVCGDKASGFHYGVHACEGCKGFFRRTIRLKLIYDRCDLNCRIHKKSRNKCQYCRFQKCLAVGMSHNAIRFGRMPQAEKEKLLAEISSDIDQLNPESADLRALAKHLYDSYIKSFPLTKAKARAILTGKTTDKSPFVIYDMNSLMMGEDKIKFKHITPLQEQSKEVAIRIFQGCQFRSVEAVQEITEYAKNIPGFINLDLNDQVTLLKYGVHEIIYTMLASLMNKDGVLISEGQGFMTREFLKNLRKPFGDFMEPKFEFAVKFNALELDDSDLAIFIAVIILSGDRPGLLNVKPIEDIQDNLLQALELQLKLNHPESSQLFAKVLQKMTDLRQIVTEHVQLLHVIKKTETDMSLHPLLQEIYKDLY

[8] = biological target: T1, Peroxisome proliferator-activated receptor gamma (Mus musculus); experiment: Agonist activity at PPARgamma in mouse 3T3L1 preadipocytes assessed as increase in C/EBPalpha mRNA expression at 5 uM after 6 days by RT-PCR analysis; format: cell-based; details: 3T3-L1
[9] = biological target: T1, Peroxisome proliferator-activated receptor gamma (Mus musculus); experiment: Agonist activity at PPARgamma in mouse 3T3L1 preadipocytes assessed as increase in PPARgamma mRNA expression at 5 uM after 6 days by RT-PCR analysis; format: cell-based; details: 3T3-L1
[10] = biological target: T1, Peroxisome proliferator-activated receptor gamma (Mus musculus); experiment: Agonist activity at PPARgamma in mouse 3T3L1 preadipocytes assessed as increase in LXRalpha mRNA expression at 5 uM after 6 days by RT-PCR analysis; format: cell-based; details: 3T3-L1
[11] = biological target: T1, Peroxisome proliferator-activated receptor gamma (Mus musculus); experiment: Agonist activity at PPARgamma in mouse 3T3L1 preadipocytes assessed as increase in SCD-1 mRNA expression at 5 uM after 6 days by RT-PCR analysis; format: cell-based; details: 3T3-L1
[12] = biological target: T1, Peroxisome proliferator-activated receptor gamma (Mus musculus); experiment: Agonist activity at PPARgamma in mouse 3T3L1 preadipocytes assessed as increase in FABP4 mRNA expression at 5 uM after 6 days by RT-PCR analysis; format: cell-based; details: 3T3-L1
[13] = tested on: 3T3-L1; experiment: Antidiabetic activity in mouse 3T3L1 preadipocytes assessed as increase in triglycerides level at 5 uM after 6 days in presence of GW9662; format: functional, cell-based
[14] = tested on: 3T3-L1; experiment: Antidiabetic activity in mouse 3T3L1 preadipocytes assessed as increase in triglycerides level at 5 uM after 6 days in presence of T0070907; format: functional, cell-based

| Compound | Activity [1] | Activity [2] | EC50 [3] [nM] | Activity [4] | Activity [5] | Activity [6] | Activity [7] | Activity [8] | Activity [9] | Activity [10] | Activity [11] | Activity [12] | Activity [13] | Activity [14] |
| --- | --- | --- | --- | --- | --- | --- | --- | --- | --- | --- | --- | --- | --- | --- |
| CC(C)=C1NC(=O)[C@@H](C[C@]2(O)c3ccccc3N3C(=O)C(C)(C)N[C@H]32)n2c1nc1ccccc1c2=O | Active | Active | 2340 | Non-Toxic | Active | Active | – | – | – | – | – | – | – | – |
| CN(CCOc1ccc(CC2SC(=O)NC2=O)cc1)c1ccccn1 (stereo unspecified) [ROSIGLITAZONE] | – | – | 120 | – | – | – | – | – | – | – | – | – | – | – |
| C/C=C1\NC(=O)[C@@H](Cc2c[nH]c3ccccc23)n2c1nc1ccccc1c2=O | Active | Active | 1030 | Non-Toxic | Active | Active | – | – | – | – | – | – | – | – |
| CC[C@@H]1N[C@@H]2N(C1=O)c1ccccc1[C@@]2(O)C[C@@H]1C(=O)NC(=C(C)C)c2nc3ccccc3c(=O)n21 | Active | Active | 270 | Non-Toxic | Active | Active | Active | Active | Active | Active | Active | Active | inactive | inactive |
| CC(C)=C1NC(=O)[C@@H](C[C@]2(O)c3ccccc3N3C(=O)[C@H](C(C)C)N[C@H]32)n2c1nc1ccccc1c2=O | Active | Active | 360 | Non-Toxic | Active | Active | Active | Active | Active | Active | Active | Active | inactive | inactive |
